Measured values as given in ChEMBL document CHEMBL3232891, “Medicinal attributes of pyrazolo[3,4-d]pyrimidines: a review” (Bioorg Med Chem, 2013).
Converted amounts (≈) assume the structure as drawn.

Tests used:
Daoy = assay: Cytotoxicity against human DaOY cells after 48 hrs by MTS assay; format: functional, cell-based
Enterococcus raffinosus = assay: Antibacterial activity against Enterococcus raffinosus; format: functional
Staphylococcus aureus = assay: Antibacterial activity against Staphylococcus aureus; format: functional
Jurkat = assay: Growth inhibition of human Jurkat cells; format: functional
NCI-H226 = assay: Growth inhibition of human NCI-H226 cells; format: functional
[1] = Growth inhibition of human NPC-TW01 cells; format: functional
[2] = system: Mycobacterium tuberculosis; assay: Antitubercular activity against Mycobacterium tuberculosis assessed as growth inhibition; format: functional
[3] = Cytotoxicity against human Saos2 cells after 48 hrs by MTT assay; format: functional, cell-based; conditions: SAOS-2, 48 h
[4] = Cytotoxicity against human Saos2 cells assessed as inhibition of cell viability at 25 uM after 48 hrs by MTT assay relative to control; format: functional; conditions: SAOS-2, 48 h
HL-60 = assay: Cytotoxicity against human HL60 cells by MTT assay; format: functional, cell-based

## Fc1cccc(CNc2ncnc3c2cnn3CC(Cl)c2ccc(Br)cc2)c1 (configuration not stated)
Daoy
  IC50: 3.5 µM

## Nc1n[nH]c2nc(-c3ccccc3)nc(-c3ccc(Br)cc3)c12
Enterococcus raffinosus
  MIC: 12.3 µM (≈ 4.5 µg/mL)
Staphylococcus aureus
  MIC: 3.8 µM (≈ 1.39 µg/mL)

## Clc1ccc(-c2nn(-c3ccccc3)c3ncncc23)cc1
Jurkat
  GI50: 36 µM
NCI-H226
  GI50: 18 µM
[1]
  GI50: 23 µM

## Cc1ccc(-c2nn(-c3ccc4ccccc4n3)c3ncncc23)cc1
Jurkat
  GI50: 54 µM
NCI-H226
  GI50: 29 µM
[1]
  GI50: 30 µM

## Clc1ccc(-c2nn(-c3ccc4ccccc4n3)c3ncncc23)cc1
Jurkat
  GI50: 69 µM
NCI-H226
  GI50: 39 µM
[1]
  GI50: 35 µM

## COc1ccc(-c2nn(-c3ccc4ccccc4n3)c3ncncc23)cc1
Jurkat
  GI50: > 100 µM
NCI-H226
  GI50: 37 µM
[1]
  GI50: 36 µM

## COc1ccc(-c2nc(-c3ccccc3)nc3[nH]nc(N)c23)cc1
Enterococcus raffinosus
  MIC: 14.2 µM (≈ 4.51 µg/mL)
Staphylococcus aureus
  MIC: 4.2 µM (≈ 1.33 µg/mL)

## Nc1n[nH]c2nc(-c3ccccc3)nc(-c3ccc(Cl)cc3)c12
Enterococcus raffinosus
  MIC: > 300 µM
Staphylococcus aureus
  MIC: 190 µM (≈ 61.2 µg/mL)

## Nc1ccc(-c2nc(-c3ccccc3)nc3[nH]nc(N)c23)cc1
Enterococcus raffinosus
  MIC: 82.8 µM (≈ 25 µg/mL)
Staphylococcus aureus
  MIC: 34.5 µM (≈ 10.4 µg/mL)

## C#CCn1ncc2c(SCc3ccccc3)ncnc21
[2]
  inhibition (INH): >90%
[2]; Mycobacterium tuberculosis
  MIC: 12.5 µg/mL (≈ 44.6 µM)

## CSc1nc(Nc2cccc(Cl)c2)c2cnn(CC(Cl)c3ccccc3)c2n1 (configuration not stated)
[3]
  IC50: 11.6 µM
[4]
  inhibition at 25 µM: 93.3%

## Fc1ccc(CNc2ncnc3c2cnn3CC(Cl)c2ccc(Cl)cc2)cc1 (configuration not stated)
Daoy
  IC50: 1.72 µM

## CC(C)(C)n1nc(-c2ccc(Cl)cc2)c2c(N)ncnc21
[3]
  IC50: 8.07 µM
[4]
  inhibition at 25 µM: 85.3%

## CCCCNc1ncnc2c1cnn2CC(Cl)c1ccccc1 (configuration not stated)
Daoy
  IC50: 6.24 µM
[3]
  IC50: 14.6 µM
[4]
  inhibition at 25 µM: 71.1%

## COc1cccc2c1C(=O)c1c(O)c3c(c(O)c1C2=O)C[C@@](O)(C(=O)CO)C[C@@H]3O[C@H]1C[C@H](N)[C@H](O)[C@H](C)O1 [DOXORUBICIN]
HL-60
  IC50: 0.55 µM
